{"source": "patent US20180055055A1", "about": "“FOLIAR APPLICATIONS FOR CONTROLLING LEPIDOPTERAN PESTS FOR FRUITS AND/OR FRUIT TREES” (priority 2016, published 2018)", "tested_on": "Grapholyta molesta", "assay": "Open field trial, foliar application on peach trees against Grapholyta molesta", "format": "in vivo", "details": "timing ABC; for Alive larvae per 100 fruit / Deep holes per 100 fruit: 12 days after final application; for % control on alive larvae / % control on deep holes: Abbott equation", "description": "Another open field trial is set up to evaluate the efficacy and selectivity of Compound A against Grapholyta molesta for peach trees (Amiga variety). The trial is designed as randomized complete block with four replications. Compound A is applied only twice (Timing A, and B), while all other treatments are applied three times (Timing A, B and C) where each application is about one week apart.\nTreatments are sprayed using a mist spray multi plot equipment, designed for efficacy trials with four independent series of 8 nozzles (ALBUZ, ATR 80 Yellow) and calibrated to apply a spray volume of 1200 L/ha at a pressure of 450 Kpa. The applications target the egg lay stage of second generation at the crop growth stage of BBCH 73-75, 75-76 and 76-77 respectively for timing A, B and C. At twelve days after the final application, the efficacy assessment is carried out on 100 fruits/plot assessing the number of damaged fruits (distinct as superficial stings and deep holes) and the number of alive larvae.\nResults are shown in Table 3, where data assessed are also transformed to a percentage of control using Abbott equation. Data are examined according to the Bartlett's test for homogeneity of variance. The treatment means of the assessment data are calculated and compared using Tukey's HSD test (p=0.05). In the untreated there are 18 alive larvae found in 100 fruits/plot, which represented a high infestation situation", "key": {"[1]": {"details": "680 g ai/ha, first listed formulation (Table 3 order: (1) CS 200 g ai/L)"}, "[2]": {"details": "680 g ai/ha, second listed formulation (Table 3 order: (2) EC 225 g ai/L)"}, "[3]": {"details": "850 ai/ha, second listed formulation (Table 3 order: (2) EC 225 g ai/L)"}, "[4]": {"details": "850 g ai/ha, first listed formulation (Table 3 order: (1) CS 200 g ai/L)"}, "[5]": {"details": "1020 g ai/ha, first listed formulation (Table 3 order: (1) CS 200 g ai/L)"}, "[6]": {"details": "1020 g ai/ha, second listed formulation (Table 3 order: (2) EC 225 g ai/L)"}}, "data": [{"smiles": "CCOP(=S)(OCC)Oc1nc(Cl)c(Cl)cc1Cl", "note": "[Chlorpyriphos-Ethyl]", "values": [{"measurement": "Alive larvae per 100 fruit", "setting": "1080 g ai/ha, EC 480 g ai/L", "result": 0.0, "unit": "b per 100 fruit"}, {"measurement": "Deep holes per 100 fruit", "setting": "1080 g ai/ha, EC 480 g ai/L", "result": 0, "unit": "b per 100 fruit"}, {"measurement": "% control on alive larvae", "setting": "1080 g ai/ha, EC 480 g ai/L", "result": 100.0, "unit": "a %"}, {"measurement": "% control on deep holes", "setting": "1080 g ai/ha, EC 480 g ai/L", "result": 100.0, "unit": "a %"}]}, {"smiles": "COP(=S)(OC)Oc1nc(Cl)c(Cl)cc1Cl", "note": "[Chlorpyriphos-Methyl]", "values": [{"measurement": "Alive larvae per 100 fruit", "setting": "[1]", "result": 0.0, "unit": "b per 100 fruit"}, {"measurement": "Deep holes per 100 fruit", "setting": "[1]", "result": 3, "unit": "b per 100 fruit"}, {"measurement": "Alive larvae per 100 fruit", "setting": "[2]", "result": 0.0, "unit": "b per 100 fruit"}, {"measurement": "Deep holes per 100 fruit", "setting": "[2]", "result": 3, "unit": "b per 100 fruit"}, {"measurement": "% control on alive larvae", "setting": "[1]", "result": 100.0, "unit": "a %"}, {"measurement": "% control on deep holes", "setting": "[1]", "result": 81.3, "unit": "c %"}, {"measurement": "% control on alive larvae", "setting": "[2]", "result": 100.0, "unit": "a %"}, {"measurement": "% control on deep holes", "setting": "[2]", "result": 85.8, "unit": "bc %"}, {"measurement": "Alive larvae per 100 fruit", "setting": "[3]", "result": 0.0, "unit": "b per 100 fruit"}, {"measurement": "Deep holes per 100 fruit", "setting": "[3]", "result": 2, "unit": "b per 100 fruit"}, {"measurement": "% control on alive larvae", "setting": "[3]", "result": 100.0, "unit": "a %"}, {"measurement": "% control on deep holes", "setting": "[3]", "result": 93.0, "unit": "bc %"}, {"measurement": "Alive larvae per 100 fruit", "setting": "[4]", "result": 0.0, "unit": "b per 100 fruit"}, {"measurement": "Deep holes per 100 fruit", "setting": "[4]", "result": 2, "unit": "b per 100 fruit"}, {"measurement": "% control on alive larvae", "setting": "[4]", "result": 100.0, "unit": "a %"}, {"measurement": "% control on deep holes", "setting": "[4]", "result": 93.4, "unit": "abc %"}, {"measurement": "Alive larvae per 100 fruit", "setting": "[5]", "result": 0.0, "unit": "b per 100 fruit"}, {"measurement": "Deep holes per 100 fruit", "setting": "[5]", "result": 0, "unit": "b per 100 fruit"}, {"measurement": "Alive larvae per 100 fruit", "setting": "[6]", "result": 0.0, "unit": "b per 100 fruit"}, {"measurement": "Deep holes per 100 fruit", "setting": "[6]", "result": 0, "unit": "b per 100 fruit"}, {"measurement": "% control on alive larvae", "setting": "[5]", "result": 100.0, "unit": "a %"}, {"measurement": "% control on deep holes", "setting": "[5]", "result": 100.0, "unit": "a %"}, {"measurement": "% control on alive larvae", "setting": "[6]", "result": 100.0, "unit": "a %"}, {"measurement": "% control on deep holes", "setting": "[6]", "result": 100.0, "unit": "a %"}]}]}
